{
  "source": "patent US20240016773A1",
  "about": "“COMPOSITIONS AND METHODS FOR DIAGNOSIS AND TREATMENT OF CONDITIONS RELATED TO AGING” (EPITRACKER, INC., priority 2018, published 2024)",
  "key": {"[1]": {"tested_on": "CD19+ B cells and peripheral blood mononuclear cells stimulated with α-IgM and TCR ligands", "assay": "First cell-based system: T cell-dependent activation of B cells (allergy)", "set-up": "species or system human", "description": "(§1) This study examined the impact of synthetic pentadecanoic acid (C15:0) at four concentrations (740 nm and 2.2, 6.7, and 20 μM) on three primary human cell-based activity systems that were exposed to agents that mimicked allergic, thrombotic, and fibrotic disease states. In general, protein-based biomarkers in these systems were measured and compared with controls. Pentadecanoic acid was considered ‘active’ when 2 or more consecutive concentrations changed a given biomarker in the same direction relative to vehicle controls, were outside of the significance envelope of internal controls, and had at least one concentration with an effect size greater than 20% (log 10 ratio >0.1).\nThe first cell-based system recapitulated T cell-dependent activation of B cells that occurs in germinal centers to mimic allergy disease states. CD19^+ B cells and peripheral blood mononuclear cells were stimulated with α-IgM and TCR ligands and incubated with pentadecanoic acid for 168 hours. In addition to controls that were not treated with pentadecanoic acid, a negative, non-stimulated system was also included. Secreted IgG was measured and compared with controls."}, "[2]": {"tested_on": "Primary endothelial cells stimulated with IL-1β, TNF-α, and IFNγ", "assay": "Second cell-based system: Th1 inflammatory and prothrombotic environment", "set-up": "species or system human", "description": "as §1\nThe second cell-based system recapitulated a Th1 inflammatory and prothrombotic environment. Primary endothelial cells were stimulated with IL-1β, TNF-α, and IFNγ and incubated with pentadecanoic acid for 24 hours. In addition to controls that were not treated with pentadecanoic acid, a negative, non-stimulated system was also included. Urokinase plasminogen activator receptor (uPAR) activation in this system was measured and compared with controls."}, "[3]": {"tested_on": "twelve different human primary cell systems mimicking various disease states", "assay": "BioMAP Diversity PLUS panel, twelve human primary cell systems (summary by disease)", "assay_type": "cell-based", "set-up": "key: x: Significantly reduced cell-based biomarkers relevant to specific diseases and conditions", "description": "As a proof of concept, 14 compounds were selected from our compound library based on predicted efficacy in lowering inflammation in dolphins. Pure synthetic forms of these compounds were screened for cell-based activities (relevant to multiple aging-associated diseases and diseases that may impact longevity) using twelve different human primary cell systems mimicking various disease states (TABLE 4—description of primary human cell systems used to screen selected compounds in library).\nThe Diversity PLUS panel allows test agent characterization in an unbiased way across a broad set of systems modeling various human disease states. These systems are designed to model complex human tissue and disease biology of the vasculature, skin, lung, and inflammatory tissues. Quantitative measurements of 148 biomarker activities across this broad panel, along with comparative analysis of biological activities from known bioactive agents, were used to predict and compare the efficacy and function of each selected compound at four concentrations (740 nm and 2.2, 6.7 and 20 μM).\nBioMAP systems are constructed with one or more primary cell types from healthy human donors, with stimuli (such as cytokines or growth factors) added to capture relevant signaling networks that naturally occur in human tissue or pathological conditions. Vascular biology is modeled in both a Th1 (3C system) and a Th2 (4H system) inflammatory environment, as well as in a Th1 inflammatory state specific to arterial smooth muscle cells (CASM3C system). Additional systems recapitulate aspects of the systemic immune response including monocyte-driven Th1 inflammation (LPS system) or T cell stimulation (SAg system), chronic Th1 inflammation driven by macrophage activation (lMphg system) and the T cell-dependent activation of B cells that occurs in germinal centers (BT system). The BE3C system (Th1) and the BF4T system (Th2) represent airway inflammation of the lung, while the MyoF system models myofibroblast-lung tissue remodeling. Lastly, skin biology is addressed in the KF3CT system modeling Th1 cutaneous inflammation and the HDF3CGF system modeling wound healing.\nEach test agent generates a signature BioMAP profile that is created from the changes in protein biomarker readouts within individual system environments. Biomarker readouts (7-17 per system) are selected for therapeutic and biological relevance, are predictive for disease outcomes or specific drug effects and are validated using agents with known mechanism of action (MoA). Each readout is measured quantitatively by immune-based methods that detect protein (e.g., ELISA) or functional assays that measure proliferation and viability. BioMAP readouts are diverse and include cell surface receptors, cytokines, chemokines, matrix molecules and enzymes. In total, the Diversity PLUS panel contains 148 biomarker readouts that capture biological changes that occur within the physiological context of the particular BioMAP system. Specific BioMAP activities have been correlated to in vivo biology, and multiparameter BioMAP profiles have been used to distinguish compounds based on MoA and target selectivity across diverse physiological systems.\nActivated BioMAP systems were incubated with each compound for 24 to 72 hours. Protein-based biomarkers from activated cell systems were measured and compared with non-treated control systems."}, "[4]": {"tested_on": "obese mouse model (C57BL/6J mice fed a high fat diet)", "assay": "High fat diet obese mouse model, daily oral pentadecanoic acid", "assay_type": "in vivo", "description": "This study examined the impact of daily oral administration of synthetic pentadecanoic acid (C15:0) on total and LDL cholesterol in an obese mouse model. Twenty C57BL/6J mice were fed a high fat diet (HFD) (D12492, 60% kcals fat) for 8 weeks. Study mice were then divided into the following two groups of ten: vehicle controls and pentadecanoic acid—treated (5 mg/kg body weight). The test article was a synthetic powder form stable at room temperature and purchased from Sigma-Aldrich (Products W433400 (≥99% C15:0). The test article was provided daily via gastric gavage for 12 weeks (84 days) while continuing ad libitum access to the HFD. Total cholesterol and low-density lipoprotein (LDL) cholesterol were measured at Day 0 and Day 84. Data from the treated group were compared to the control group using Wilcoxon rank sum analyses. Significance was defined as a P value less than or equal to 0.05."}, "[5]": {"conditions": "all four concentrations (740 nm and 2.2, 6.7, and 20 μM)"}},
  "data": [
    {"smiles": "CCCCCCCCCCCCCCC(=O)O", "note": "[Pentadecanoic acid, pentadecanoic acid]", "values": [
      {"measurement": "Secreted IgG (FIG. 2)", "setting": "[1]; 168 hours incubation, 6.7 μM and 20 μM bioactive, vs controls", "value": "dose-dependent decreases"},
      {"measurement": "Cytotoxicity", "setting": "[1]; [5]", "value": "non-cytotoxic"},
      {"measurement": "uPAR (FIG. 3)", "setting": "[2]; 24 hours incubation, 6.7 μM and 20 μM bioactive, vs controls", "value": "increases"},
      {"measurement": "Cytotoxicity", "setting": "[2]; [5]", "value": "non-cytotoxic"},
      {"measurement": "Significantly reduced cell-based biomarkers relevant to: Allergy", "setting": "[3]; Table 6", "value": "x"},
      {"measurement": "Significantly reduced cell-based biomarkers relevant to: Asthma", "setting": "[3]; Table 6", "value": "x"},
      {"measurement": "Significantly reduced cell-based biomarkers relevant to: Autoimmunity", "setting": "[3]; Table 6", "value": "x"},
      {"measurement": "Significantly reduced cell-based biomarkers relevant to: Hematological oncology", "setting": "[3]; Table 6", "value": "x"},
      {"measurement": "Significantly reduced cell-based biomarkers relevant to: SLE", "setting": "[3]; Table 6", "value": "x"},
      {"measurement": "Significantly reduced cell-based biomarkers relevant to: T-cell dependent B cell proliferation", "setting": "[3]; Table 6", "value": "x"},
      {"measurement": "Significantly reduced cell-based biomarkers relevant to: Chronic inflammation", "setting": "[3]; Table 7", "value": "x"},
      {"measurement": "Significantly reduced cell-based biomarkers relevant to: Organ transplantation", "setting": "[3]; Table 7", "value": "x"},
      {"measurement": "Significantly reduced cell-based biomarkers relevant to: Psoriasis", "setting": "[3]; Table 7", "value": "x"},
      {"measurement": "Significantly reduced cell-based biomarkers relevant to: Rheumatoid arthritis", "setting": "[3]; Table 7", "value": "x"},
      {"measurement": "Significantly reduced cell-based biomarkers relevant to: Thl type inflammation", "setting": "[3]; Table 7", "value": "x"},
      {"measurement": "Significantly reduced cell-based biomarkers relevant to: Crohn's disease", "setting": "[3]; Table 8", "value": "x"},
      {"measurement": "Significantly reduced cell-based biomarkers relevant to: Fibrosis", "setting": "[3]; Table 8", "value": "x"},
      {"measurement": "Significantly reduced cell-based biomarkers relevant to: Hematological oncology", "setting": "[3]; Table 8", "value": "x"},
      {"measurement": "Significantly reduced cell-based biomarkers relevant to: Stromal biology in tumors", "setting": "[3]; Table 8", "value": "x"},
      {"measurement": "Tolerability of test article", "setting": "[4]; 5 mg/kg daily gavage, 12 weeks, HFD mice", "value": "tolerated the test article throughout the study"},
      {"measurement": "Total Cholesterol", "setting": "[4]; Index at Day 84, 5 mg/kg dose daily via gastric gavage for 12 weeks, HFD mice, P 0.032 vs HFD control", "value": "183 + 25 mg/dl"},
      {"measurement": "LDL Cholesterol", "setting": "[4]; Index at Day 84, 5 mg/kg dose daily via gastric gavage for 12 weeks, HFD mice, P 0.036 vs HFD control", "value": "6.3 ± 3.6", "unit": "mg/dL"},
      {"measurement": "Percent body weight gain compared to control mice on high fat diet alone", "setting": "[4]; oral daily for 12 weeks, obese mice on high fat diet", "value": "lower percent body weight gain"},
      {"measurement": "Early mortalities", "setting": "[4]; treated group, 5 mg/kg daily gavage, 12 weeks", "value": "no early mortalities"}
    ]}
  ]
}
